According to US20230303549A1, “SUBSTITUTED HETEROARYLOXYPYRIDINES, THE SALTS THEREOF AND THEIR USE AS HERBICIDAL AGENTS” (Bayer Aktiengesellschaft, priority 2020, published 2023):

How the values were obtained:
Assay type in all cases: in vivo
[1] = system: Abutilon theophrasti (ABUTH); assay: Post-emergence herbicidal efficacy at 320 g/ha, greenhouse pot test; conditions: visual rating vs untreated control after about 3 weeks
Experimental: (§1) Seeds of mono- and dicotyledonous weed plants were placed in plastic pots in sandy loam soil (doubly sown with in each case one species of mono- or dicotyledonous weed plants per pot), covered with soil and cultivated in a greenhouse under controlled growth conditions. 2 to 3 weeks after sowing, the test plants were treated at the one-leaf stage. The compounds of the invention, formulated in the form of wettable powders (WP) or as emulsion concentrates (EC), were applied onto the green parts of the plants as aqueous suspension or emulsion with addition of 0.5% additive at a water application rate of 600 liters per hectare (converted). After the test plants had been kept in the greenhouse under optimum growth conditions for about 3 weeks, the activity of the preparations was rated visually in comparison to untreated controls. For example, 100% activity=the plants have died, 0% activity=like control plants. Tables […] 11 below show the effects of selected compounds of the general formula (I) according to Table 1 on various harmful plants and an application rate corresponding to 320 g/ha, which were obtained by the experimental procedure mentioned above.

[2] = system: Bassia scoparia (KCHSC); assay: as above; conditions: visual rating vs untreated control after about 3 weeks
Experimental: as §1

[3] = system: Poa annua (POAAN); assay: as above; conditions: visual rating vs untreated control after about 3 weeks
Experimental: as §1

[4] = system: Alopecurus myosuroides (ALOMY); assay: Pre-emergence herbicide efficacy at 320 g/ha, greenhouse pot test; conditions: visual scoring vs untreated control after about 3 weeks
Text: (§2) Seeds of mono- and dicotyledonous weed plants were placed in plastic pots in sandy loam soil (doubly sown with in each case one species of mono- or dicotyledonous weed plants per pot) and covered with soil. The compounds of the invention, formulated in the form of wettable powders (WP) or as emulsion concentrates (EC), were then applied onto the surface of the covering soil as aqueous suspension or emulsion with addition of 0.5% additive at a water application rate of 600 liters per hectare (converted). After the treatment, the pots were placed in a greenhouse and kept under good growth conditions for the test plants. After about 3 weeks, the effect of the preparations was scored visually in comparison with untreated controls as percentages. For example, 100% activity=the plants have died, 0% activity=like control plants. Tables C1 to C12 below show the effects of selected compounds of the general formula (I) according to Table 1 on various harmful plants and an application rate corresponding to 320 g/ha, which were obtained by the experimental procedure mentioned above.

[5] = system: Amaranthus retroflexus (AMARE); assay: as above; conditions: visual scoring vs untreated control after about 3 weeks
Text: as §2

[6] = system: Veronica persica (VERPE); assay: as above; conditions: visual scoring vs untreated control after about 3 weeks
Text: as §2

[7] = system: Abutilon theophrasti (ABUTH); assay: as above; conditions: visual scoring vs untreated control after about 3 weeks
Text: as §2

[8] = system: Bassia scoparia (KCHSC); assay: as above
Text: as §2

[9] = system: Setaria viridis (SETVI); assay: as above; conditions: visual scoring vs untreated control after about 3 weeks
Text: as §2

[10] = system: Echinochloa crus-galli (ECHCG); assay: as above; conditions: visual scoring vs untreated control after about 3 weeks
Text: as §2

[11] = system: Stellaria media (STEME); assay: as above; conditions: visual scoring vs untreated control after about 3 weeks
Text: as §2

[12] = system: Poa annua (POAAN); assay: as above; conditions: visual scoring vs untreated control after about 3 weeks
Text: as §2

[13] = system: Matricaria inodora (MATIN); assay: as above; conditions: visual scoring vs untreated control after about 3 weeks
Text: as §2

[14] = system: Alopecurus myosuroides (ALOMY); assay: Post-emergence herbicidal efficacy at 320 g/ha, greenhouse pot test; conditions: visual rating vs untreated control after about 3 weeks
Experimental: as §1

[15] = system: Amaranthus retroflexus (AMARE); assay: as above; conditions: visual rating vs untreated control after about 3 weeks
Experimental: as §1

[16] = system: Veronica persica (VERPE); assay: as above
Experimental: as §1

[17] = system: Stellaria media (STEME); assay: as above; conditions: visual rating vs untreated control after about 3 weeks
Experimental: as §1

[18] = system: Viola tricolor (VIOTR); assay: Post-emergence herbicidal efficacy at 80 g/ha, greenhouse pot test; conditions: visual rating vs untreated control after about 3 weeks
Experimental: (§3) Seeds of monocotyledonous and dicotyledonous weeds and crop plants were placed in sandy loam in plastic or organic planting pots, covered with soil and cultivated in a greenhouse under controlled growth conditions. 2 to 3 weeks after sowing, the test plants were treated at the one-leaf stage. The compounds of the invention, formulated in the form of wettable powders (WP) or as emulsion concentrates (EC), were then sprayed onto the green parts of the plants as aqueous suspension or emulsion with addition of 0.5% additive at a water application rate of 600 l/ha (converted). After the test plants had been kept in the greenhouse under optimum growth conditions for about 3 weeks, the activity of the preparations was rated visually in comparison to untreated controls. For example, 100% activity=the plants have died, 0% activity=like control plants. Tables B1 to B6 below show the effects of selected compounds of the general formula (I) according to Table 1 on various harmful plants and an application rate corresponding to 80 g/ha, which were obtained by the experimental procedure mentioned above.

[19] = system: Amaranthus retroflexus (AMARE); assay: as above; conditions: visual rating vs untreated control after about 3 weeks
Experimental: as §3

[20] = system: Viola tricolor (VIOTR); assay: Pre-emergence herbicide efficacy at 80 g/ha, greenhouse pot test; conditions: visual scoring vs untreated control after about 3 weeks
Text: (§4) Seeds of monocotyledonous and dicotyledonous weed plants and crop plants were placed in plastic or organic planting pots and covered with soil. The compounds of the invention, formulated in the form of wettable powders (WP) or as emulsion concentrates (EC), were then applied to the surface of the covering soil as aqueous suspension or emulsion with addition of 0.5% additive at a water application rate of […] (converted). After the treatment, the pots were placed in a greenhouse and kept under good growth conditions for the test plants. After about 3 weeks, the effect of the preparations was scored visually in comparison with untreated controls as percentages. For example, 100% activity=the plants have died, 0% activity=like control plants. Tables D1 to D12 below show the effects of selected compounds of the general formula (I) according to Table 1 on various harmful plants and an application rate corresponding to 80 g/ha, which were obtained by the experimental procedure mentioned above.

[21] = system: Amaranthus retroflexus (AMARE); assay: as above; conditions: visual scoring vs untreated control after about 3 weeks
Text: as §4

[22] = system: Abutilon theophrasti (ABUTH); assay: as above; conditions: visual scoring vs untreated control after about 3 weeks
Text: as §4

[23] = 320 g/ha, visual scoring vs untreated control after about 3 weeks
[24] = 320 g/ha, visual rating vs untreated control after about 3 weeks
[25] = dosage 1280 g/ha in Table C6, visual scoring after about 3 weeks

Row | Structure (SMILES) | Post-emergence efficacy against Abutilon theophrasti (ABUTH) [1] | Post-emergence efficacy against Bassia scoparia (KCHSC) [2] | Post-emergence efficacy against Poa annua (POAAN) [3] | Pre-emergence efficacy against Alopecurus myosuroides (ALOMY) [4] | Pre-emergence efficacy against Amaranthus retroflexus (AMARE) [5] | Pre-emergence efficacy against Veronica persica (VERPE) [6] | Pre-emergence efficacy against Abutilon theophrasti (ABUTH) [7] | Pre-emergence efficacy against Bassia scoparia (KCHSC) [8, 23] | Pre-emergence efficacy against Setaria viridis (SETVI) [9] | Pre-emergence efficacy against Echinochloa crus-galli (ECHCG) [10] | Pre-emergence efficacy against Stellaria media (STEME) [11] | Pre-emergence efficacy against Poa annua (POAAN) [12] | Pre-emergence efficacy against Matricaria inodora (MATIN) [13] | Post-emergence efficacy against Alopecurus myosuroides (ALOMY) [14] | Post-emergence efficacy against Amaranthus retroflexus (AMARE) [15] | Post-emergence efficacy against Veronica persica (VERPE) [16, 24] | Post-emergence action against Stellaria media (STEME) [17] | Pre-emergence efficacy against Bassia scoparia (KCHSC) [8, 25] | further results
1 | Cc1cc(C)c(-c2cc(C(F)(F)F)on2)c(Oc2ncc(F)cn2)n1 [Example I-6] | 90% | 90% | 90% | 90% | 100% | 100% | 100% | 90% | 100% | 100% | 100% | 100% | 100% |  |  |  |  |  | 
2 | Cc1cc(C)c(-c2cc(C(F)F)no2)c(Oc2cnc(Cl)cn2)n1 [Example I-11] |  | 90% |  | 100% | 100% | 100% | 90% | 90% | 90% |  | 100% | 100% | 100% | 90% | 100% | 100% | 100% |  | 
3 | Cc1cc(C)c(-c2cc(C(F)F)no2)c(Oc2ncc(Cl)cc2F)n1 [Example I-14] | 90% | 100% |  |  | 100% |  | 100% |  | 100% |  | 100% | 100% | 100% | 100% | 90% |  | 100% | 100% | Post-emergence efficacy against Veronica persica (VERPE) ([16]; dosage printed 80 g/ha in Table A9, visual rating after about 3 weeks): 100%; Post-emergence efficacy against Viola tricolor (VIOTR) [18]: 100%; Post-emergence efficacy against Amaranthus retroflexus (AMARE) [19]: 100%; Pre-emergence efficacy against Viola tricolor (VIOTR) [20]: 100%; Pre-emergence efficacy against Amaranthus retroflexus (AMARE) [21]: 100%; Pre-emergence efficacy against Abutilon theophrasti (ABUTH) [22]: 80%
4 | Cc1cc(C)c(-c2cc(C3CC3)no2)c(Oc2ncc(Cl)cn2)n1 [Example I-179] | 90% | 90% | 90% |  | 100% | 90% | 100% |  | 100% | 100% | 100% | 100% | 100% |  | 90% | 100% | 100% | 90% | 
